The source of these data is BindingDB's records for doi:10.7270/Q26W98HW (Burnham Center For Chemical Genomics, 2009).

The assay concerns the target Eukaryotic translation initiation factor 4H (Homo sapiens, UniProt Q15056). The experiment in a line: eIF4H binding inhibition – biochemical, uHTS, fluorescence polarization, translation initiation inhibitor project, primary screen (AID 2012).

For `O=C(O)c1ccc(N=NCc2cc3c(cc2[N+](=O)[O-])OCO3)cc1`, the IC50 (usually the point on the concentration scale where inhibition reaches its midpoint) turned out to be 21.8 µM.
Next, `COc1ccc2c(c1)=C(NNC(=O)Cc1cccs1)C(=O)N=2`: 11 µM.
Turning to `CCn1c(=NC(=O)c2ccc(-n3c(O)ccc3O)cc2)sc2c(OC)ccc(OC)c21` [4-[2,5-bis(oxidanylidene)pyrrolidin-1-yl]-N-(3-ethyl-4,7-dimethoxy-1,3-benzothiazol-2-ylidene)benzamide], the IC50 is 14.7 µM.
Next, `CC1(C)Oc2ccc3ccc(=O)oc3c2C(CN=O)=C1Cl` [9-chloro-2-keto-8,8-dimethyl-pyrano[2,3-f]chromene-10-carbaldehyde oxime]: 100 µM.
Next, `COc1cc(C)cc(C(=O)O)c1C1C(=O)C(=O)c2c(O)cccc2C1=O` (centres undefined) [MLS000877007]: 5.43 µM; `O=C1N=c2ccccc2=C1NNC(=O)c1cc(-c2cccs2)n[nH]1` [N'-(2-oxoindol-3-yl)-5-thiophen-2-yl-1H-pyrazole-3-carbohydrazide]: 11.5 µM; `CC1=NC(=O)NC(c2ccco2)C1C(=O)OC(C)C` (centres undefined) [SMR000120838]: 34.7 µM.
`COc1ccc(CN=Nc2nc(O)c(CC(=O)O)s2)cc1OCc1ccc(Cl)cc1Cl` [[2-({3-[(2,4-dichlorobenzyl)oxy]-4-methoxybenzylidene}hydrazono)-4-oxo-1,3-thiazolidin-5-yl]acetic acid] returned a concentration for half-maximal inhibition (IC50) of 14.7 µM. Against the preceding molecule, the IC50 is about 2.4-fold lower.
Next, `CC[N+](C)(CC)CCCC(N=O)C(O)(c1ccccc1)c1ccccc1` (centres undefined) [diethyl-(5-hydroxy-4-hydroxyimino-5,5-diphenylpentyl)-methylammonium;iodide]: 100 µM.
